Read-outs that look alike come from different tables or passages of the source.
Assay: Phase I single dose oral AMX0035 fasted/fed plasma pharmacokinetics and food effect (Protocol A35-002)
Type: in vivo, human
Settings: for Frel AUC(0-inf) / Frel AUC(0-last) / Frel Cmax: fed relative to fasted
Summary of the method: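 Healthy adults (n=14) received a single oral dose in the morning on two occasions, fasted ≥10 h or 30 min after starting a high-fat breakfast. About 21 venous K2EDTA samples per subject were taken over 24 h and processed to plasma. PK parameters were calculated from actual elapsed times after dosing.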

[1] = single dose AMX0035 fasted, Geometric Mean
[2] = single dose AMX0035 fasted, Max
[3] = single dose AMX0035 fasted, Median
[4] = single dose AMX0035 fasted, Min
[5] = single dose AMX0035 fed, Geometric Mean
[6] = single dose AMX0035 fed, Median

With `O=C(O)Cc1ccccc1` [PAA, phenylacetate] the T1/2 (Table 1: fasted, geometric mean (CV%), terminal half-life) was 48.8 min, the Tmax (Table 1: fasted, median (range)) was 2.500 h and the AUC(0-inf) (both sexes, human, in vivo, Table 1: fasted, geometric mean (CV%), read-out: AUC(0-inf)) was 83400 ng·h/mL. It also gave a half-life (both sexes, human, in vivo, Table 1: fasted, geometric mean (CV%), terminal half-life, read-out: T1/2 (converted)) of 48.6 min, a half-life (both sexes, human, in vivo, fasted, read-out: elimination half-lives (range)) of 41.4 to 57 min and a half-life (both sexes, human, in vivo, fed, read-out: elimination half-lives (range)) of 36 to 62.4 min. It also gave a Cmax (both sexes, human, in vivo, po, Table 1: single oral dose ALBRIOZA, healthy subjects, fasted, geometric mean (CV%), read-out: Cmax) of 26400 ng/mL, an AUC(0-inf) (both sexes, human, in vivo, po, single oral AMX0035, Fasted (N = 13), healthy subjects, PK analysis subset, read-out: AUC(0-inf), Adj Geo Mean) of 84800 ng·h/mL and an AUC(0-t) (both sexes, human, in vivo, po, single oral AMX0035, Fasted (N = 13), healthy subjects, PK analysis subset, read-out: AUC(0-last), Adj Geo Mean) of 83200 ng·h/mL. It also gave a Cmax (both sexes, human, in vivo, po, single oral AMX0035, Fasted (N = 13), healthy subjects, PK analysis subset, read-out: Cmax, Adj Geo Mean) of 26600 ng/mL, an AUC(0-inf) (both sexes, human, in vivo, po, single oral AMX0035, Fed (N = 13), healthy subjects, PK analysis subset, read-out: AUC(0-inf), Adj Geo Mean) of 59800 ng·h/mL and an AUC(0-t) (both sexes, human, in vivo, po, single oral AMX0035, Fed (N = 13), healthy subjects, PK analysis subset, read-out: AUC(0-last), Adj Geo Mean) of 58200 ng·h/mL. It also gave a Cmax (both sexes, human, in vivo, po, single oral AMX0035, Fed (N = 13), healthy subjects, PK analysis subset, read-out: Cmax, Adj Geo Mean) of 16100 ng/mL, a Cmax (both sexes, human, in vivo, single dose AMX0035, healthy subjects, fasting, read-out: mean Cmax) of 26400 ng/mL and an AUC(0-inf) (both sexes, human, in vivo, single dose AMX0035 fasted, Geometric Mean, read-out: AUC(0-inf)) of 83400 ng·h/mL. The AUC(0-t) (both sexes, human, in vivo, single dose AMX0035 fasted, Geometric Mean, read-out: AUC(0-last)) was 81800 ng·h/mL, the Cmax (both sexes, human, in vivo, single dose AMX0035 fasted, Geometric Mean, read-out: Cmax) was 26400 ng/mL and the half-life (both sexes, human, in vivo, single dose AMX0035 fasted, Geometric Mean, read-out: T1/2 (converted)) was 48.8 min. It also gave an AUC(0-inf) (both sexes, human, in vivo, single dose AMX0035 fasted, Median, read-out: AUC(0-inf)) of 80700 ng·h/mL, an AUC(0-t) (both sexes, human, in vivo, single dose AMX0035 fasted, Median, read-out: AUC(0-last)) of 79300 ng·h/mL and a Cmax (both sexes, human, in vivo, single dose AMX0035 fasted, Median, read-out: Cmax) of 27700 ng/mL. The half-life (both sexes, human, in vivo, single dose AMX0035 fasted, Median, read-out: T1/2 (converted)) was 50 min, the AUC(0-inf) (both sexes, human, in vivo, single dose AMX0035 fed, Geometric Mean, read-out: AUC(0-inf)) was 58300 ng·h/mL and the AUC(0-t) (both sexes, human, in vivo, single dose AMX0035 fed, Geometric Mean, read-out: AUC(0-last)) was 56700 ng·h/mL. For the same molecule, the Cmax (both sexes, human, in vivo, single dose AMX0035 fed, Geometric Mean, read-out: Cmax) was 15900 ng/mL, the half-life (both sexes, human, in vivo, single dose AMX0035 fed, Geometric Mean, read-out: T1/2 (converted)) was 46.8 min and the AUC(0-inf) (both sexes, human, in vivo, single dose AMX0035 fed, Median, read-out: AUC(0-inf)) was 54500 ng·h/mL. It also gave an AUC(0-t) (both sexes, human, in vivo, single dose AMX0035 fed, Median, read-out: AUC(0-last)) of 53100 ng·h/mL, a Cmax (both sexes, human, in vivo, single dose AMX0035 fed, Median, read-out: Cmax) of 16000 ng/mL and a half-life (both sexes, human, in vivo, single dose AMX0035 fed, Median, read-out: T1/2 (converted)) of 47 min. The Tmax (both sexes, human, in vivo, non parametric analysis, PK analysis subset, Fasted, read-out: Tmax Median) was 2.5 h, the “peak exposure to metabolite as % of that for parent” value (fasted) was “approximately 14%” and the “time from which plasma concentrations were evident” value (fasted) was 0.25 h. The “total exposure to metabolite based on AUC(0-inf) as % of that for parent” value (fasted) was “approximately 35%”, the “peak exposure to metabolite as % of that for parent” value (fed) was “approximately 34%” and the “total exposure to metabolite based on AUC(0-inf) as % of that for parent” value (fed) was “approximately 48%”. The “Frel AUC(0-inf)” value (Geometric Mean) was 70.606%, the “Frel AUC(0-last)” value (Geometric Mean) was 70.024% and the “Frel Cmax” value (Geometric Mean) was 60.480%. The “Frel AUC(0-inf)” value (Max) was 91.45%, the “Frel AUC(0-last)” value (Max) was 91.27% and the “Frel Cmax” value (Max) was 86.29%. The “Frel AUC(0-inf)” value (Median) was 70.563%, the “Frel AUC(0-last)” value (Median) was 69.952% and the “Frel Cmax” value (Median) was 58.065%. The “Frel AUC(0-inf)” value (Min) was 58.16%, the “Frel AUC(0-last)” value (Min) was 57.31% and the “Frel Cmax” value (Min) was 45.73%. The “Tmax Median” value (non parametric analysis, PK analysis subset, Fed) was 2.500 h, the AUCextrap [1] was 1.779% and the Lambda-z [1] was 0.8527 h⁻¹. The “AUC(0-inf)” value [2] was 142000 ng·h/mL, the “AUC(0-last)” value [2] was 141 µg·h/mL and the AUCextrap [2] was 3.18%. It also gave a Lambda-z [2] of 0.9999 h⁻¹, a T1/2 [2] of 57 min and a Tmax [2] of 3.50 h. For the same molecule, the AUCextrap [3] was 1.963%, the Lambda-z [3] was 0.8310 h⁻¹ and the Tmax [3] was 2.500 h. The “AUC(0-inf)” value [4] was 45200 ng·h/mL, the “AUC(0-last)” value [4] was 43.8 µg·h/mL and the AUCextrap [4] was 1.06%. For the same molecule, the Lambda-z [4] was 0.7287 h⁻¹, the T1/2 [4] was 41.4 min and the Tmax [4] was 1.50 h. The AUCextrap [5] was 2.485%, the Lambda-z [5] was 0.8886 h⁻¹ and the “AUC(0-inf)” value (single dose AMX0035 fed, Max) was 130000 ng·h/mL. The “AUC(0-last)” value (single dose AMX0035 fed, Max) was 128 µg·h/mL, the AUCextrap (single dose AMX0035 fed, Max) was 4.13% and the Lambda-z (single dose AMX0035 fed, Max) was 1.1486 h⁻¹. The T1/2 (single dose AMX0035 fed, Max) was 62.4 min, the Tmax (single dose AMX0035 fed, Max) was 4.50 h and the AUCextrap [6] was 2.680%. The Lambda-z [6] was 0.8899 h⁻¹, the Tmax [6] was 2.500 h and the “AUC(0-inf)” value (single dose AMX0035 fed, Min) was 31900 ng·h/mL. The “AUC(0-last)” value (single dose AMX0035 fed, Min) was 30.6 µg·h/mL, the AUCextrap (single dose AMX0035 fed, Min) was 1.26% and the Lambda-z (single dose AMX0035 fed, Min) was 0.6696 h⁻¹. For the same molecule, the T1/2 (single dose AMX0035 fed, Min) was 36 min, the Tmax (single dose AMX0035 fed, Min) was 2.00 h and the “higher exposure in females compared to males” value (single oral dose, fed and fasted) was roughly 31%.
